Measurements published in patent publication US10287301B2 (Achillion Pharmaceuticals, Inc., priority 2015, dated 2019).

These compounds were tested against Human Factor D (Homo sapiens (Human), UniProt P00746) (assay: Human Factor D Assay). Conditions: Human Factor D 80 nM, substrate Z-L-Lys-SBzl; read-out: IC50.
Format: biochemical
Description: Human Factor D (purified from human serum, Complement Technology, Inc.) at 80 nM final concentration was incubated with test compound at various concentrations for 5 minutes at room temperature in 50 mM Tris, 1M NaCl, pH 7.5. A synthetic substrate Z-L-Lys-SBzl and DTNB (Ellman's reagent) are added to final concentrations of 100 μM each. […] IC50 values are calculated by nonlinear regression of complement Factor D reaction rates as a function of test compound concentration.

Sequence of Human Factor D (P00746 26-253): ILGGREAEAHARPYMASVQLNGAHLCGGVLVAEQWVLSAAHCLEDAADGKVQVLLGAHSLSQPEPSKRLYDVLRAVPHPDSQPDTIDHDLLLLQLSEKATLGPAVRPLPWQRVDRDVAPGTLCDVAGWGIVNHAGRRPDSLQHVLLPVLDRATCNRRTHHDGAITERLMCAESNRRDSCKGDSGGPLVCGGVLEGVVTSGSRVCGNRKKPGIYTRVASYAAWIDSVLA

| Compound | IC50 [µM] |
| --- | --- |
| NC(=O)c1nn(CC(=O)N2C[C@H](F)C[C@H]2C(=O)NCc2cc(F)cc(Cl)c2)c2ccc(-c3ccnnc3)cc12 [Compound 62, 1-(2-((2S,4R)-2-(3-chloro-5-fluorobenzyl-carbamoyl)-4-fluoropyrrolidin-1-yl)-2-oxoethyl)-5-(pyridazin-4-yl)-1H-indazole-3-carboxamide] | < 1 |
| CC(=O)c1cn(CC(=O)N2C[C@H](F)C[C@H]2C(=O)Nc2ccccc2N2CCOC2=O)c2ccc(-c3ccnnc3)cc12 [Compound 64, (2S,4R)-1-(2-(3-acetyl-5-(pyridazin-4-yl)-1H-indol-1-yl)acetyl)-4-fluoro-N-(2-(2-oxooxazolidin-3-yl)phenyl) pyrrolidine-2-carboxamide] | > 10 |
| NC(=O)c1nn(CC(=O)N2C[C@H](F)C[C@H]2C(=O)Nc2ccccc2N2CCOC2=O)c2ccc(-c3ccnnc3)cc12 [Compound 65, 1-(2-((2S,4R)-4-fluoro-2-(2-(2-oxooxazolidin-3-yl)phenylcarbamoyl)pyrrolidin-1-yl)-2-oxoethyl)-5-(pyridazin-4-yl)-1H-indazole-3-carboxamide] | > 10 |
| CC(=O)c1cn(CC(=O)N2C[C@H](F)C[C@H]2C(=O)Nc2cncc(Cl)c2)c2ccc(-c3ccnnc3)cc12 [Compound 66, (2S,4R)-1-(2-(3-acetyl-5-(pyridazin-4-yl)-1H-indol-1-yl)acetyl)-N-(5-chloropyridin-3-yl)-4-fluoropyrrolidine-2-carboxamide] | < 1 |
| CC(=O)c1cn(CC(=O)N2C[C@H](F)C[C@H]2C(=O)Nc2cncc(Br)c2)c2ccc(-c3ccnnc3)cc12 [Compound 68, (2S,4R)-1-(2-(3-acetyl-5-(pyridazin-4-yl)-1H-indol-1-yl)acetyl)-N-(5-bromopyridin-3-yl)-4-fluoropyrrolidine-2-carboxamide] | < 1 |
| NC(=O)c1nn(CC(=O)N2C[C@H](F)C[C@H]2C(=O)Nc2nnc(-c3ccc(Cl)c(Cl)c3)s2)c2ccc(-c3ccnnc3)cc12 [Compound 69, 1-(2-((2S,4R)-2-(5-(3,4-dichlorophenyl)-1,3,4-thiadiazol-2-ylcarbamoyl)-4-fluoropyrrolidin-1-yl)-2-oxoethyl)-5-(pyridazin-4-yl)-1H-indazole-3-carboxamide] | > 10 |
| NCc1ccc(NC(=O)[C@@H]2C[C@@H](F)CN2C(=O)Cn2nc(C(N)=O)c3cc(-c4ccnnc4)ccc32)cc1 [Compound 70, 1-(2-((2S,4R)-2-(4-(aminomethyl)phenylcarbamoyl)-4-fluoropyrrolidin-1-yl)-2-oxoethyl)-5-(pyridazin-4-yl)-1H-indazole-3-carboxamide] | > 10 |
| Cc1ccnn1-c1ccccc1NC(=O)[C@@H]1C[C@@H](F)CN1C(=O)Cn1nc(C(N)=O)c2cc(-c3ccnnc3)ccc21 [Compound 71, 1-(2-((2S,4R)-4-fluoro-2-(2-(5-methyl-1H-pyrazol-1-yl)phenylcarbamoyl)pyrrolidin-1-yl)-2-oxoethyl)-5-(pyridazin-4-yl)-1H-indazole-3-carboxamide] | > 10 |
| CC(=O)c1cn(CC(=O)N2C[C@H](F)C[C@H]2C(=O)Nc2ccccc2-n2nccc2C)c2ccc(-c3ccnnc3)cc12 [Compound 72, (2S,4R)-1-(2-(3-acetyl-5-(pyridazin-4-yl)-1H-indol-1-yl)acetyl)-4-fluoro-N-(2-(5-methyl-1H-pyrazol-1-yl)phenyl) pyrrolidine-2-carboxamide] | > 10 |
| NC(=O)c1nn(CC(=O)N2C[C@H](F)C[C@H]2C(=O)Nc2cccc(OCc3ccccc3)n2)c2ccc(-c3ccnnc3)cc12 [Compound 73, 1-(2-((2S,4R)-2-(6-(benzyloxy)pyridin-2-ylcarbamoyl)-4-fluoropyrrolidin-1-yl)-2-oxoethyl)-5-(pyridazin-4-yl)-1H-indazole-3-carboxamide] | > 10 |
| CC(=O)c1cn(CC(=O)N2C[C@H](F)C[C@H]2C(=O)N[C@H]2CCCC[C@@H]2OCc2ccccc2)c2ccc(-c3ccnnc3)cc12 [Compound 74, (2S,4R)-1-(2-(3-acetyl-5-(pyridazin-4-yl)-1H-indol-1-yl)acetyl)-N-((1S,2S)-2-(benzyloxy)cyclohexyl)-4-fluoropyrrolidine-2-carboxamide] | > 10 |
| CC(=O)c1cn(CC(=O)N2C[C@H](F)C[C@H]2C(=O)Nc2ccc3c(c2)OC(C)(C)C3)c2ccc(-c3ccnnc3)cc12 [Compound 75, (2S,4R)-1-(2-(3-acetyl-5-(pyridazin-4-yl)-1H-indol-1-yl)acetyl)-N-(2,2-dimethyl-2,3-dihydrobenzofuran-6-yl)-4-fluoropyrrolidine-2-carboxamide] | < 1 |
| CC1(C)Cc2ccc(NC(=O)[C@@H]3C[C@@H](F)CN3C(=O)Cn3nc(C(N)=O)c4cc(-c5ccnnc5)ccc43)cc2O1 [Compound 76, 1-(2-((2S,4R)-2-(2,2-dimethyl-2,3-dihydrobenzofuran-6-ylcarbamoyl)-4-fluoropyrrolidin-1-yl)-2-oxoethyl)-5-(pyridazin-4-yl)-1H-indazole-3-carboxamide] | < 1 |
| CC(=O)c1cn(CC(=O)N2C[C@H](F)C[C@H]2C(=O)N[C@H]2CCC[C@@H]2OCc2ccccc2)c2ccc(-c3ccnnc3)cc12 [Compound 77, (2S,4R)-1-(2-(3-acetyl-5-(pyridazin-4-yl)-1H-indol-1-yl)acetyl)-N-((1S,2S)-2-(benzyloxy)cyclopentyl)-4-fluoropyrrolidine-2-carboxamide] | > 10 |
| NC(=O)c1nn(CC(=O)N2C[C@H](F)C[C@H]2C(=O)N[C@H]2CCCC[C@@H]2OCc2ccccc2)c2ccc(-c3ccnnc3)cc12 [Compound 78, 1-(2-((2S,4R)-2-((1S,2S)-2-(benzyloxy)cyclohexyl-carbamoyl)-4-fluoropyrrolidin-1-yl)-2-oxoethyl)-5-(pyridazin-4-yl)-1H-indazole-3-carboxamide] | > 10 |
| CNC(=O)[C@@H]1C[C@@H](F)CN1C(=O)Cn1nc(C(N)=O)c2cc(-c3ccnnc3)ccc21 [Compound 79, 1-(2-((2S,4R)-4-fluoro-2-(methylcarbamoyl)pyrrolidin-1-yl)-2-oxoethyl)-5-(pyridazin-4-yl)-1H-indazole-3-carboxamide] | > 10 |
| COc1ncc(-c2ccc3c(c2)c(C(C)=O)cn3CC(=O)N2[C@@H]3C[C@@H]3C[C@H]2C(=O)Nc2cccc(-c3ccccc3Cl)c2F)cn1 [Compound 80, (1R,3S,5R)-2-(2-(3-acetyl-5-(2-methoxypyrimidin-5-yl)-1H-indol-1-yl)acetyl)-N-(2′-chloro-2-fluorobiphenyl-3-yl)-2-azabicyclo[3.1.0] hexane-3-carboxamide] | < 1 |
| COc1ncc(-c2ccc3c(c2)c(C(C)=O)cn3CC(=O)N2[C@@H]3C[C@@H]3C[C@H]2C(=O)Nc2cccc(Br)n2)cn1 [Compound 81, (1R,3S,5R)-2-(2-(3-acetyl-5-(2-methoxypyrimidin-5-yl)-1H-indol-1-yl)acetyl)-N-(6-bromopyridin-2-yl)-2-azabicyclo[3.1.0] hexane-3-carboxamide] | < 1 |
| CC(=O)c1cn(CC(=O)N2C[C@H](F)C[C@H]2C(=O)Nc2cccc(Br)n2)c2ccc(-c3cnc(C#N)nc3)cc12 [Compound 82, (2S,4R)-1-(2-(3-acetyl-5-(2-cyanopyrimidin-5-yl)-1H-indol-1-yl)acetyl)-N-(6-bromopyridin-2-yl)-4-fluoropyrrolidine-2-carboxamide] | < 1 |
| CC(=O)c1cn(CC(=O)N2C[C@H](F)C[C@H]2C(=O)Nc2cccc(Br)n2)c2ccc(-c3cnc(F)nc3)cc12 [Compound 83, (2S,4R)-1-(2-(3-acetyl-5-(2-fluoropyrimidin-5-yl)-1H-indol-1-yl)acetyl)-N-(6-bromopyridin-2-yl)-4-fluoropyrrolidine-2-carboxamide] | < 1 |
| CC(=O)c1cn(CC(=O)N2C[C@H](F)C[C@H]2C(=O)Nc2cccc(Br)n2)c2ccc(-c3cnc(C)nc3)cc12 [Compound 84, (2S,4R)-1-(2-(3-acetyl-5-(2-methylpyrimidin-5-yl)-1H-indol-1-yl)acetyl)-N-(6-bromopyridin-2-yl)-4-fluoropyrrolidine-2-carboxamide] | < 1 |
| CC(=O)c1cn(CC(=O)N2C[C@H](F)C[C@H]2C(=O)Nc2ccc(CN)cc2)c2ccc(-c3ccnnc3)cc12 [Compound 85, (2S,4R)-1-(2-(3-acetyl-5-(pyridazin-4-yl)-1H-indol-1-yl)acetyl)-N-(4-(aminomethyl)phenyl)-4-fluoropyrrolidine-2-carboxamide] | > 10 |
| NC(=O)c1nn(CC(=O)N2C[C@H](F)C[C@H]2C(=O)Nc2ccc3cn[nH]c3c2)c2ccc(-c3ccnnc3)cc12 [Compound 86, 1-(2-((2S,4R)-2-(1H-indazol-6-ylcarbamoyl)-4-fluoropyrrolidin-1-yl)-2-oxoethyl)-5-(pyridazin-4-yl)-1H-indazole-3-carboxamide] | > 10 |
| CC(=O)c1cn(CC(=O)N2C[C@H](F)C[C@H]2C(=O)Nc2cncc(Cl)n2)c2ccc(-c3ccnnc3)cc12 [Compound 88, (2S,4R)-1-(2-(3-acetyl-5-(pyridazin-4-yl)-1H-indol-1-yl)acetyl)-N-(6-chloropyrazin-2-yl)-4-fluoropyrrolidine-2-carboxamide] | < 1 |
| NC(=O)c1nn(CC(=O)N2C[C@H](F)C[C@H]2C(=O)Nc2cncc(Cl)n2)c2ccc(-c3ccnnc3)cc12 [Compound 89, 1-(2-((2S,4R)-2-(6-chloropyrazin-2-ylcarbamoyl)-4-fluoropyrrolidin-1-yl)-2-oxoethyl)-5-(pyridazin-4-yl)-1H-indazole-3-carboxamide] | < 1 |
| NC(=O)c1nn(CC(=O)N2C[C@H](F)C[C@H]2C(=O)Nc2ccc(F)c(-c3nnc4n3CCCCC4)c2)c2ccc(-c3ccnnc3)cc12 [Compound 91, 1-(2-((2S,4R)-4-fluoro-2-(4-fluoro-3-(6,7,8,9-tetrahydro-5H-[1,2,4]triazolo[4,3-a]azepin-3-yl)phenylcarbamoyl)pyrrolidin-1-yl)-2-oxoethyl)-5-(pyridazin-4-yl)-1H-indazole-3-carboxamide] | > 10 |
